pIC50: −log10 of the molar value. “Also recorded” adds a separate entry of the source. Where two headings read alike, the source gives them in different places. One block for each molecule: values may come before it.
Columns and labels:
dynamin = conditions: cited from earlier work
A431 cells [1] = assay: Immunofluorescence of cetuximab-EGFR internalization, A431; assay type: cell-based, human; conditions: 4-hour time-course, Dyngo4a added
Protocol: (§1) A431 cells were seeded on coverslips in 12-well plates and incubated overnight to reach 80% confluence. […] 30 μM dyngo4a was added at given time points as described in figure legends. The cells were then washed three times in ice cold PBS and fixed in 4% PFA/PBS for 30 minutes, followed by permeabilization in 0.1% TritonX/PBS (PBTX) for 20 minutes. […] The coverslips were mounted on slides in Prolong Gold (Life technologies). Images were acquired using a Zeiss 510 Meta confocal with a 63× objective.

KJD cells [2] = assay: MTS/MTT toxicity assay in the absence of PBMC, KJD; assay type: cell-based; conditions: absence of PBMC/ADCC, single agent or with cetuximab
Protocol: (§2) FIG. 30 is a graphical representation of a multi-parametric FACS analysis showing that manipulation of EGFR trafficking with dynamin inhibitors, Dyngo4a and Pyrimidyn-7, results in enhanced ADCC in cetuximab-sensitive and insensitive cells. cetuximab-dependent ADCC assays were performed essentially according to the procedures outlined in FIGS. 27 and 28. […] (C) Percentage of specific KJD cell death is shown in the presence of dynamin inhibitors only. […] (E) An MTS assay was conducted in the absence of PBMC to assess toxicity of compounds in the absence of ADCC. […] Triton X100 is added as a control for maximum cell death. (F) An MTS assay was conducted in the absence of PBMC to assess toxicity of compounds in the absence of ADCC. […] Triton X100 is added as a control for maximum cell death. (G) An MTS assay was conducted to assess possible toxicity of dynamin inhibitors to PBMC cells. […] Triton X100 is added as a control for maximum cell death.
(§3) Compounds Dyngo4a and Pyrimidyn-7 were tested in both multi-variant FACS analysis assay as described in Example 4 and by MTT assay. In particular, compounds were tested for improvement of cetuximab-dependent ADCC against cetuximab-sensitive A431 cells and cetuximab-resistant KJD cells and for single agent toxicity.

A431 cells [3] = assay: Flow cytometry-based ADCC assay on A431 cells; assay type: cell-based, human; conditions: FACS; for effect of dynamin inhibitor on cetuximab-dependent ADCC of A431 cells: inhibitor + cetuximab + PBMC
KJD cells [4] = assay: Flow cytometry-based ADCC assay on KJD cells; assay type: cell-based, human; conditions: for effect of dynamin inhibitor on cetuximab-dependent ADCC of KJD cells: inhibitor + cetuximab + PBMC
A431 cells [5] = assay: MTS/MTT toxicity assay in the absence of PBMC, A431; assay type: cell-based
Protocol: as §2, §3

[6] = system: EGFR endocytosis in A431 cells; assay: EGF-Alexa488 uptake immunofluorescence (ligand-induced EGFR endocytosis); assay type: cell-based, human; conditions: 15 min EGF-Alexa488 uptake
Protocol: (§4) FIG. 23 is a photographic representation showing example panels for correlation between inhibited EGFR endocytosis and MHC class I and class II status. (A) Immunofluorescence showing manipulation of EGFR trafficking using a dynamin inhibitor. A431 cells were serum-starved for 3 hours and then treated with different concentrations of dynasore (0, 60 and 100 μM) for 0.5 and 24 hours. 15 minutes EGF-Alexa488 (100 ng/mL) uptakes were performed to monitor the trafficking of the ligand bound EGFRs (in green). The nuclei are shown in blue. (B) immunofluorescence showing changes in MHC class I and class II distributions caused by altered EGFR trafficking. A431 cells were treated with different concentrations of dynasore (0, 60 and 100 μM) for 0.5 hours, followed by fixation and permeabilization. MHC class I and class II were then labeled with primary antibodies PE-HLA-ABC and PE-HLA-DR, respectively, followed by secondary antibody labeling (Alexa 594). MHC I and II are shown in red while the nuclei are shown in blue.
FIG. 29 is a photographic representation showing Dyngo4a inhibition of EGFR endocytosis. […] Immunofluorescence was conducted to confirm the manipulation of EGFR trafficking using Dyngo4a. A431 cells were serum-starved for 3 hours and then treated with different concentrations of (A) Dyngo4a (0 and 30 μM) for 30 min. […] The nuclei are shown in blue. […]

A431 cells [7] = assay: Cetuximab mediated ADCC MTS assay; assay type: cell-based, human; conditions: Dyngo4a 30 μM + cetuximab 60 μg/mL + PBMC, vs cetuximab single treatment
PBMC = assay: MTS/MTT toxicity of dynamin inhibitors to PBMC; assay type: cell-based; conditions: for toxicity to PBMC: MTS/MTT, single agent
Protocol: Dyngo4a (0 and 30 μM) was added at the end of the incubation. 10% Triton was added to A431 cells after 24-hour incubation with PBMCs for cell death control. The ADCC effects were measured by MTS assay. The cell viability was presented as OD values at 490 nm. The average of OD values released from background was subtracted from effector cell controls (A-II) and target/effector tests (A-III).
as §2, §3

KJD cells [8] = assay: Immunofluorescence of cetuximab-EGFR trafficking, KJD; assay type: cell-based, human; conditions: incubation with Dyngo4a
Protocol: FIG. 28 is a photographic and graphical representation of a multi-parametric FACS analysis showing that manipulation of EGFR trafficking with dynamin inhibitors results in improved ADCC in cetuximab-insensitive cells. (A) Immunofluorescence imaging of cetuximab trafficking status in KJD cells. […] 7-AAD was added at the end of the 4-hour assay to label dead cells prior to FACS analysis. (B) Gating strategies used for the assessment of specific target cell death. FITC indicates CFSE while PerCP-Cy5.5 indicates 7-AAD. The dead target cells appear in the upper right quadrant, CFSE painted and 7-AAD positive. (C.1) KJD cell death under different conditions. (C.2) The percentage of specific KJD cell death was calculated. Data shown are an average of 3 experiments+/−SEM by Two-Way ANOVA with Bonferroni post test. ****: P≤0.0001; ***: P≤0.001; **: P≤0.01; *: P≤0.05. ns: no significance.
as §1

A431 cells [9] = assay: Dynasore 24 hour treatment, A431 cells; assay type: cell-based, human
Protocol: as §4

HeLa cells [10] = conditions: dose dependent, previous study (23), read-out: IC50 of dynasore mediated endocytosis inhibition; cited from earlier work
HeLa cells [11] = assay: Dynasore 24 hour treatment, HeLa cells; assay type: cell-based
A431 cells [12] = assay: MHC class I and class II immunofluorescence in A431 cells; assay type: cell-based, human
Protocol: as §4

[13] = A431, dynasore 0, 60, 100 μM, 0.5 hours

Structure (SMILES): N#C/C(=C\c1ccc(O)c(O)c1)C(=O)NCCCNC(=O)/C(C#N)=C/c1ccc(O)c(O)c1 [Bis-T-22, 2-cyano-N-{3-[2-cyano-3-(3,4-dihydroxyphenyl)-acryloylamino]-propyl}-3-(3-,4-dihydroxyphenyl)-acrylamide]
basal dynamin GTPase activity (dynamin; absence of PS liposomes, dynamin rings): stimulates basal dynamin GTPase activity
inhibition of helical dynamin (dynamin; dynamin activated by phosphatidylserine (PS) liposomes): potent in vitro inhibitor of dynamin

Structure (SMILES): O=C(N/N=C/c1cc(O)c(O)cc1O)c1cc2ccccc2cc1O [Dyngo-4a]
surface and internalized levels of cetuximab (A431 cells [1]): increases surface levels of cetuximab and decreases internalized levels
toxicity to KJD cells (KJD cells [2]): no toxicity as a single agent; also recorded: no significant toxicity on KJD cells
effect of Dyngo4a on Herceptin-dependent ADCC of A431 cells (A431 cells [3]; Dyngo4a + Herceptin + PBMC): enhance both cetuximab-dependent and Herceptin-dependent ADCC
effect of dynamin inhibitor on cetuximab-dependent ADCC of A431 cells (A431 cells [3]): increased level of cetuximab-induced ADCC; also recorded: improve cetuximab-dependent ADCC; also recorded: enhance both cetuximab-dependent and Herceptin-dependent ADCC
cetuximab-induced ADCC with Dyngo4a, KJD cell killing (KJD cells [4]; Dyngo4a 30 μM + cetuximab 60 μg/mL + PBMC, 4 hours): greater than 40%
effect of Dyngo4a on Herceptin-dependent ADCC of KJD cells (KJD cells [4]; Dyngo4a + Herceptin + PBMC, FACS): enhance Herceptin-dependent ADCC of KJD cells even more so
tumor cell killing by inhibitor alone (KJD cells [4]; Dyngo4a alone, without cetuximab): did not kill tumor cells
effect of dynamin inhibitor on cetuximab-dependent ADCC of KJD cells (KJD cells [4]; FACS): improve cetuximab-dependent ADCC; also recorded: enhance both cetuximab-dependent and Herceptin-dependent ADCC
toxicity to A431 cells (A431 cells [5]): no toxicity as a single agent
toxicity to A431 cells (A431 cells [5]; human): no significant toxicity on A431 cells
ligand-induced EGFR endocytosis [6]: has an inhibitory effect on the ligand-induced EGFR endocytosis
cetuximab mediated ADCC in presence of dynamin inhibitor (cell viability, MTS) (A431 cells [7]): cells lost more viability
cell viability of PBMCs (effector cells) (PBMC; Dyngo4a alone and with cetuximab, MTS, vs negative and 10% Triton controls): did not cause large cell viability reduction in PBMCs
toxicity to PBMC (PBMC): no toxicity as a single agent; also recorded: no significant toxicity
plasma membrane expression of EGFR (KJD cells [8]): increased the plasma membrane expression of EGFR

cell morphology after 24 hours dynasore (A431 cells [9]): cellular nuclear condensation
Structure (SMILES): O=C(N/N=C/c1ccc(O)c(O)c1)c1cc2ccccc2cc1O [Dynasore, 3-hydroxynaphthalene-2-carboxylic acid (3,4-dihydroxybenzylidene) hydrazide]
ligand-induced EGFR endocytosis [6]: successfully functioned as an endocytosis inhibitor
pIC50 (HeLa cells [10]): ~4.82
cell morphology after 24 hours dynasore (HeLa cells [11]): appeared apoptotic or to have cytokinetic defects
plasma membrane levels of MHCI (A431 cells [12]; A431, EGF stimulation coupled with dynasore inhibition): no longer detectable
MHCI signal (A431 cells [12]; [13]): increasing MHCI signal
MHCII signal (A431 cells [12]; [13]): decrease in MHCII signal

Structure (SMILES): CCCCCCCCCCCCNc1cc(C)nc(NCCN(C)C)n1 [Pyrimidyn-7]
toxicity to KJD cells (KJD cells [2]): showed single agent toxicity; also recorded: significant death of KJD cells
effect of dynamin inhibitor on cetuximab-dependent ADCC of A431 cells (A431 cells [3]): improve cetuximab-dependent ADCC
cell death by ADCC in the absence of cetuximab (KJD cells [4]; KJD cells (FIG. 30C), inhibitor only): Some increase in cell death
effect of dynamin inhibitor on cetuximab-dependent ADCC of KJD cells (KJD cells [4]; FACS): improve cetuximab-dependent ADCC
toxicity to A431 cells (A431 cells [5]; MTS/MTT, absence of PBMC/ADCC, single agent or with cetuximab): showed single agent toxicity; also recorded: significant death of A431 cells
toxicity to PBMC (PBMC): showed single agent toxicity; also recorded: shows toxicity

From patent publication US10253107B2, “Use of endocytosis inhibitors and antibodies for cancer therapy” (THE UNIVERSITY OF QUEENSLAND, priority 2012, dated 2019)
